# Reference: patent US20140213538A1, “LYSOPHOSPHATIDIC ACID RECEPTOR ANTAGONISTS” (InterMune, Inc., priority 2013, published 2014)
# What was measured:
# LPA1 = LPA1 (Homo sapiens, UniProt Q92633); test: LPA1 Migration Assay (Oris); type: cell-based; parameters: host or cells: primary fibroblasts (lung, dermal), HFL-1, 3T3 and CHO cells expressing LPA1R; details: read-out: Cell Migration EC50
# Excerpt: LPA1 Migration Assay Migration of primary fibroblasts (including lung, dermal), HFL-1, 3T3 and CHO cells expressing LPA1R were monitored using the Oris™ assay (Platypus Technologies, Madison, Wis.). These cells were dye (Cell Tracker Green™) loaded and serum starved for 12-24 hrs. In response to chemoattractants such as LPA and serum, the cells migrated inward in to the exclusion (detection) zone. After fixing, fluorescent cells in the detection zone were counted using a high content reader. The ability of LPA1 antagonists to inhibit cell migration is quantified by plotting cell number vs. compound concentration and curve fitting the resulting dose-response curve to a 4 parameter logistic function.
# LPA/S1P GPCR of interest = molecular target: T1, LPA/S1P GPCR of interest (Homo sapiens, UniProt Q92633); test: Beta-Arrestin based assay (PathHunter); type: cell-based
# T1 construct: host or cells: CHO
# T1 sequence (Q92633 whole entry): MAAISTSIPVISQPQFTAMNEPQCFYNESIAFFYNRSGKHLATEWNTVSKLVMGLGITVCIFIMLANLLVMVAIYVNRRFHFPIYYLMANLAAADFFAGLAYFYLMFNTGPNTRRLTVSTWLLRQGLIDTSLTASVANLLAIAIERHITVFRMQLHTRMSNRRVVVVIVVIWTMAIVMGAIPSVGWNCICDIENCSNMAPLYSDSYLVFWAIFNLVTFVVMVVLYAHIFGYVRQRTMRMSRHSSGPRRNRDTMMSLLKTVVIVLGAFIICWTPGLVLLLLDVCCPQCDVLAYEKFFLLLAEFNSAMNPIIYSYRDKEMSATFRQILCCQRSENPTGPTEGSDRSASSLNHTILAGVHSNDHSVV
# Outline: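 EA Parental CHO cells (DiscoverX) were transfected with FuGENE (Roche) using CMV promoter-driven DNA constructs encoding the LPA/S1P GPCR of interest fused to a ProLink tag. Beta-arrestin recruitment in agonist mode was assessed 24-48 hrs later with PathHunter kits. Tests ran in quadruplicate in white 384 well plates, and end point luminescence was fit to a 4 parameter logistic function.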
# Chain of LPA1 (Q92633 whole entry): as above
Structure (SMILES),EC50 (LPA1),EC50 (LPA/S1P GPCR of interest)
C[C@@H](OC(=O)Nc1c(-c2cc3sc(-c4ccc(CC(=O)O)c(Cl)c4)cc3s2)cnn1C)c1ccccc1 [IT165],> 500 nM,50 to 500 nM
C[C@@H](OC(=O)Nc1c(-c2cc3sc(-c4ccc(C5(C(=O)O)CC5)c(F)c4F)cc3s2)nnn1C)c1ccccc1 [IT365],50 to 500 nM,< 50 nM
Cc1noc(-c2ccc(-c3ccc(NC(=O)OC(C)(C)C)cc3)cc2)c1NC(=O)O[C@H](C)c1ccccc1 [IT194],> 500 nM,> 500 nM
CCOC(=O)c1ccccc1Oc1ccc(-c2ccc(-c3nnn(C)c3NC(=O)O[C@H](C)c3ccccc3)cc2)cc1 [IT477],50 to 500 nM,< 50 nM
C[C@@H](OC(=O)Nc1c(-c2ccc(-c3cc(F)c(Oc4ccsc4C(=O)O)c(F)c3)cc2)cnn1C)c1ccccc1 [IT465],< 50 nM,< 50 nM
Cc1noc(-c2ccc(C#Cc3ccccc3C(=O)O)cc2)c1NC(=O)O[C@H](C)c1ccccc1 [IT154],> 500 nM,> 500 nM
Cc1nsc(-c2cc3sc(-c4ccc(CC(=O)O)cc4)cc3s2)c1NC(=O)O[C@H](C)c1ccccc1 [IT133],> 500 nM,50 to 500 nM
C[C@@H](OC(=O)Nc1c(-c2cc3sc(-c4cc(F)c(C5(C(=O)O)CC5)cc4F)cc3s2)nnn1C)c1ccccc1 [IT348],50 to 500 nM,< 50 nM
Cc1nsc(-c2ccc(-c3ccc(OC(C)(C)C(=O)O)cc3)cc2)c1NC(=O)O[C@H](C)c1ccccc1 [IT509],> 500 nM,50 to 500 nM
Cc1nsc(-c2ccc(-c3cc(F)c(Oc4cccnc4C(=O)O)c(F)c3)cc2)c1NC(=O)O[C@H](C)c1ccccc1 [IT464],50 to 500 nM,< 50 nM
Cc1nsc(-c2ccc(-c3nnc(CC(=O)O)o3)cc2)c1NC(=O)O[C@H](C)c1ccccc1 [IT142],> 500 nM,> 500 nM
Cc1cc(C2(C(=O)O)CC2)ccc1-c1cc2sc(-c3nnn(C)c3NC(=O)O[C@H](C)c3ccccc3)cc2s1 [IT291],50 to 500 nM,< 50 nM
C[C@@H](OC(=O)Nc1c(-c2cc3sc(-c4ccc(CC(=O)O)c(F)c4)cc3s2)cnn1C)c1ccccc1 [IT164],> 500 nM,< 50 nM
Cc1noc(-c2ccc(-c3ccc(S(=O)(=O)C4CC4)cc3)cc2)c1NC(=O)O[C@H](C)c1ccccc1 [IT173],> 500 nM,> 500 nM
CCOC(=O)c1cccnc1Oc1c(F)cc(-c2ccc(-c3nnn(C)c3NC(=O)O[C@H](C)c3ccccc3)cc2)cc1F [IT476],> 500 nM,< 50 nM
C[C@@H](OC(=O)Nc1c(-c2cc3sc(-c4ccc(CC(=O)O)cc4N)cc3s2)nnn1C)c1ccccc1 [IT181],> 500 nM,> 500 nM
C[C@@H](OC(=O)Nc1c(-c2cc3sc(-c4ccc5scc(CC(=O)O)c5c4)cc3s2)nnn1C)c1ccccc1 [IT336],50 to 500 nM,< 50 nM
Cc1noc(-c2ccc(-c3ccc(Oc4ncn(C)c4C(=O)O)cc3)cc2)c1NC(=O)O[C@H](C)c1ccccc1 [IT486],> 500 nM,50 to 500 nM
C[C@@H](OC(=O)Nc1c(-c2cc(F)c(-c3nc4sc(C5(C(=O)O)CC5)cc4s3)cc2F)cnn1C)c1ccccc1 [IT279],50 to 500 nM,< 50 nM
C[C@@H](OC(=O)Nc1c(-c2ccc(-c3ccc(Oc4cccc(F)c4C(=O)O)cc3)cc2)cnn1C)c1ccccc1 [IT456],50 to 500 nM,< 50 nM
C[C@@H](OC(=O)Nc1c(-c2cc3sc(C#CC4(C(=O)O)CC4)cc3s2)nnn1C)c1ccccc1 [IT145],> 500 nM,< 50 nM
Cc1noc(-c2ccc(-c3ccc(OC(C)(C)C(=O)O)c(F)c3)cc2)c1NC(=O)O[C@H](C)c1ccccc1 [IT506],50 to 500 nM,< 50 nM
C[C@@H](OC(=O)Nc1c(-c2cc3sc(-c4ccc(CC(=O)O)cc4Cl)cc3s2)cnn1C)c1ccccc1 [IT140],> 500 nM,50 to 500 nM
Cc1cc(CC(=O)O)ccc1-c1cc2sc(-c3nnn(C)c3NC(=O)O[C@H](C)c3ccccc3)cc2s1 [IT171],> 500 nM,50 to 500 nM
C[C@@H](OC(=O)Nc1c(-c2ccc(-c3ccc(Oc4cc(F)ccc4C(=O)O)cc3)cc2)cnn1C)c1ccccc1 [IT469],50 to 500 nM,< 50 nM
C[C@@H](OC(=O)Nc1c(-c2ccc(-c3ccc(Oc4ccc(F)cc4C(=O)O)cc3)cc2)cnn1C)c1ccccc1 [IT461],50 to 500 nM,< 50 nM
Cc1noc(-c2cc3cc4sc(CC(=O)O)cc4cc3s2)c1NC(=O)O[C@H](C)c1ccccc1 [IT499],> 500 nM,> 500 nM
C[C@@H](OC(=O)Nc1c(-c2ccc(-c3cc(F)c(OC4(C(=O)O)CC4)c(F)c3)cc2)nnn1C)c1ccccc1 [IT312],50 to 500 nM,< 50 nM

Structure (SMILES),EC50 (LPA1),EC50 (LPA/S1P GPCR of interest)
Cc1noc(-c2ccc(-c3ccc(Oc4ccccc4C(=O)O)nn3)cc2)c1NC(=O)O[C@H](C)c1ccccc1 [IT259],> 500 nM,50 to 500 nM
Cc1nsc(-c2cc(Cl)c(-c3cc4sc(C5(C(=O)O)CC5)cc4s3)cc2F)c1NC(=O)O[C@H](C)c1ccccc1 [IT281],50 to 500 nM,< 50 nM
Cc1cc(CC(=O)O)ccc1-c1cc2sc(-c3snc(C)c3NC(=O)O[C@H](C)c3ccccc3)cc2s1 [IT170],> 500 nM,50 to 500 nM
Cc1nsc(-c2cc3sc(-c4ccc(CC(=O)O)nc4)cc3s2)c1NC(=O)O[C@H](C)c1ccccc1 [IT185],> 500 nM,> 500 nM
C[C@@H](OC(=O)Nc1c(-c2cc3sc(-c4cnc(C5(C(=O)O)CC5)s4)cc3s2)nnn1C)c1ccccc1 [IT189],> 500 nM,50 to 500 nM
C[C@@H](OC(=O)Nc1c(-c2cc3sc(-c4ccc(CC(=O)O)cc4N)cc3s2)cnn1C)c1ccccc1 [IT180],> 500 nM,> 500 nM
Cc1noc(-c2cc3sc(-c4cc(F)c(OC5(C(=O)O)CC5)c(F)c4)cc3s2)c1NC(=O)O[C@H](C)c1ccccc1 [IT488],50 to 500 nM,50 to 500 nM
Cc1noc(-c2ccc(-c3ccc(S(=O)(=O)CC4CC4)cc3)cc2)c1NC(=O)O[C@H](C)c1ccccc1 [IT174],> 500 nM,> 500 nM
Cc1noc(-c2ccc(-c3ccc(Oc4nccnc4C(=O)O)cc3)cc2)c1NC(=O)O[C@H](C)c1ccccc1 [IT232],50 to 500 nM,< 50 nM
C[C@@H](OC(=O)Nc1cccnc1C#Cc1cc2sc(C3(C(=O)O)CC3)cc2s1)c1ccccc1 [IT115],> 500 nM,50 to 500 nM
Cc1nsc(-c2cc3sc(-c4cnc(C5(C(=O)O)CC5)s4)cc3s2)c1NC(=O)O[C@H](C)c1ccccc1 [IT184],> 500 nM,> 500 nM
C[C@@H](OC(=O)Nc1c(-c2cc3sc(-c4ccc(CC(=O)O)s4)cc3s2)nnn1C)c1ccccc1 [IT179],> 500 nM,50 to 500 nM
Cc1nsc(-c2ccc(-c3ccc(OC(C)(C)C(=O)O)c(F)c3)cc2)c1NC(=O)O[C@H](C)c1ccccc1 [IT507],> 500 nM,50 to 500 nM
Cc1nsc(-c2cc3sc(-c4ccc(CC(=O)O)cc4F)cc3s2)c1NC(=O)O[C@H](C)c1ccccc1 [IT135],> 500 nM,50 to 500 nM
C[C@@H](OC(=O)Nc1c(-c2cc3sc(-c4cc(F)c(C5(C(=O)O)CC5)cc4F)cc3s2)cnn1C)c1ccccc1 [IT347],50 to 500 nM,< 50 nM
Cc1noc(-c2ccc(-c3ccc(S(N)(=O)=O)cc3)cc2)c1NC(=O)O[C@H](C)c1ccccc1 [IT129],> 500 nM,50 to 500 nM
Cc1nsc(-c2cc3sc(-c4cc(F)c(C5(C(=O)O)CC5)c(F)c4)cc3s2)c1NC(=O)O[C@H](C)c1ccccc1 [IT263],50 to 500 nM,< 50 nM
Cc1cc(CC(=O)O)ccc1-c1cc2sc(-c3cnn(C)c3NC(=O)O[C@H](C)c3ccccc3)cc2s1 [IT169],> 500 nM,50 to 500 nM
C[C@@H](OC(=O)Nc1c(-c2cc3sc(-c4ccc(C5(C(=O)O)CC5)c(F)c4F)cc3s2)cnn1C)c1ccccc1 [IT364],50 to 500 nM,< 50 nM
Cc1noc(-c2ccc(-c3ccc(Oc4scnc4C(=O)O)cc3)cc2)c1NC(=O)O[C@H](C)c1ccccc1 [IT420],50 to 500 nM,< 50 nM
Cc1noc(-c2ccc(-c3cc(F)c(Oc4ccsc4C(=O)O)c(F)c3)cc2)c1NC(=O)O[C@H](C)c1ccccc1 [IT463],< 50 nM,< 50 nM
Cc1noc(-c2ccc(-c3ccc(Oc4ccccc4C(=O)O)cn3)cc2)c1NC(=O)O[C@H](C)c1ccccc1 [IT344],50 to 500 nM,< 50 nM
C[C@@H](OC(=O)Nc1c(-c2cc3sc(-c4ccc(C5(C(=O)O)CC5)cc4)cc3s2)nnn1C)c1ccccc1 [IT149],50 to 500 nM,< 50 nM
C[C@@H](OC(=O)Nc1c(-c2cc3sc(-c4ccc(C5(C(=O)O)CC5)nc4)cc3s2)nnn1C)c1ccccc1 [IT270],50 to 500 nM,< 50 nM
C[C@@H](OC(=O)Nc1c(-c2ccc(-c3ccc(OC(C)(C)C(=O)O)cc3)cc2)cnn1C)c1ccccc1 [IT510],> 500 nM,50 to 500 nM
Cc1nsc(-c2ccc(-c3cc(F)c(OC(C)(C)C(=O)O)c(F)c3)cc2)c1NC(=O)O[C@H](C)c1ccccc1 [IT502],> 500 nM,50 to 500 nM
Cc1noc(-c2ccc(-c3ccc(Oc4ccsc4C(=O)O)cc3)cc2)c1NC(=O)O[C@H](C)c1ccccc1 [IT428],50 to 500 nM,< 50 nM
